For assay [1], the system named is SakSTAR specific T-cell clones (CD3+, CD4+). In words: Functional T-cell assay: proliferation (BrdU) of SakSTAR-specific T-cell clones with APC and antigen/peptide. The class given is cell-based, human. As to conditions: for immunogenic / functional T-cell epitope by T-cell clone specificity: over 100 SakSTAR specific T-cell clones, SakSTAR-derived peptides; for proliferation of region(71-87)-specific T-cell clones: positive if at least three times the background. The text has this: For the cloning of SakSTAR-specific T-cell clones, approximately 15×10^6 PBMC from each donor were stimulated with an optimal concentration of SakSTAR for 7-9 days. The visible T-cell clones were harvested under the microscope, and individually re-stimulated in a 96-well flat-bottom plate with autologous PBMC as antigen presenting cells (APC). These wells were supplemented on day 1 with 20U/ml recombinant human interleukin-2 (IL-2) (Boehringer Mannheim, Mannheim, Germany) and allowed to grow for 8-11 days. Re-stimulation was repeated every 8-11 days under the same conditions. After 3 to 6 passages, autologous PBMC were replaced by autologous Epstein Barr Virus (EBV)-immortalized B-cell lines as antigen presenting cells.
To identify immunogenic regions on the SakSTAR molecule, the isolated T-cell clones were tested for their specificity using SakSTAR-derived peptides. In total 25 peptides 17 residues in length, each overlapping 12 residues were synthesized using a fluorenylmethoxy-carbonyl-protected amino acid coupling procedure (Hiemstra et al., 1997). Each individual T-cell clone was tested for its specificity by co-culturing T-cells, Mitomycin C-treated autologous EBV-B-cells and antigen or the appropriate peptide for 4 days. Subsequently, the T-cell clones were pulsed for 24 hours with BrdU, harvested and analyzed for their BrdU content.

The test system of another assay is PBMC. Briefly: Proliferation (stimulation index) of SakSTAR-myc-primed PBMC re-stimulated with antigen/peptides. The format is cell-based, human. As to conditions: for cellular immune response (stimulation index) of SakSTAR-myc primed PBMC: PBMC from 10 region(71-87)-immunoreactive donors, value exceeding 3 positive. The source says: However, the vast majority of humans does also recognize additional immunogenic SakSTAR regions (untouched in these SakSTAR-variants), which would invalidate such an experiment. Therefore, 25 other healthy donors were screened for SakSTAR immunoreactivity. PBMC were thawed, washed four times in 1% human serum albumin, and cultured at 1.8×10^6 cells/ml in RPMI 1640 supplemented with 5%. human serum (Biowitthaker, Walkersville, Md.) and gentamycin with or without SakSTAR-myc for 10 days in a humidified CO2 incubator. The non-adherent cells were harvested and restimulated with no antigen, SakSTAR-myc or different peptides. For antigen presenting cells, irradiated autologous PBMC were T-cell depleted, using CD3-M450 Dynabeads (Dynal, Compiégne, France) according manufacturer procedures (FACS analysis indicated >95% non-T-cells). The plates were incubated at 37° C. under humidified atmosphere containing 5% CO2 for 5 days, and pulsed with BrdU for the last 22 to 24 hours.
Subsequently, the cells were harvested and analyzed for their BrdU content (BrdU ELISA, Boehringer Mannheim, Mannheim, Germany). A stimulation index was calculated, by dividing the OD obtained from the PBMC in response to an antigen/peptide by that of the spontaneous proliferation (no antigen) control. A value exceeding 3 was considered positive, indicating the proliferation of specific T-cells to that particular antigen/peptide.

“AYKEFRVVELD [S1, 11-mer peptide, SakSTAR residues 72-82]”: in assay [1], the “immunogenic / functional T-cell epitope by T-cell clone specificity” value (“immunogenic / functional T-cell epitope” for short) is reported as “functional T-cell epitopes” and the “proliferation of region(71-87)-specific T-cell clones” value was “clones Tc-1 to Tc-6 proliferated”.
The like results for “EFRVVELDPSA [S2, 11-mer peptide, SakSTAR residues 75-85]” were, in that order, “functional T-cell epitopes” and “Tc-7 to Tc-10 recognize the S2 peptide”.
For the sequence HYVEFPIKPGT [43-HYVEFPIKPGT-53], the “immunogenic / functional T-cell epitope” value in assay [1] is listed as “no T-cell clones were isolated”.
With “TAYAAFAVVALAPSAKI [quintuple (K74A, E75A, R77A, E80A, D82A), multiple mutation(71-87) peptide]”, the “cellular immune response (stimulation index) of SakSTAR-myc primed PBMC” value in the assay with PBMC is listed as “none of the tested donors showed a positive cellular immune response”.
As for “TAYKEFAVVALAPSAKI [triple (R77A, E80A, D82A), multiple mutation(71-87) peptide]”, the “cellular immune response (stimulation index) of SakSTAR-myc primed PBMC” value in the assay with PBMC is “none of the tested donors showed a positive cellular immune response”.
On the same count and under the same terms, the entry for “TAYKEFAVVALDPSAKI [double (R77A, E80A), multiple mutation(71-87) peptide]” is “none of the tested donors showed a positive cellular immune response”.
As for “TAYKEFRVVELDPSAKI [71-TAYKEFRVVELDPSAKI-87, wild type SakSTAR(71-87) 17-mer peptide]”, the “donors from which isolated T-cell clones were stimulated by the peptide” value in assay [1] (T-cell clones from 10 healthy donors) was 9 of 10. In addition, the “SakSTAR positive donors with a cellular immune response to the peptide” value in the assay with PBMC (20 identified SakSTAR positive donors, stimulation index exceeding 3 positive) stood at 80%.
As to “TAYQEFSVVSLSPSAKI [quadruple (K74Q, R77S, E80S, D82S), multiple mutation(71-87) peptide]”, the “cellular immune response (stimulation index) of SakSTAR-myc primed PBMC” value with PBMC was “none of the tested donors showed a positive cellular immune response”.
For the sequence TYYDKNKKKEE [90-TYYDKNKKKEE-100], in assay [1], the “immunogenic / functional T-cell epitope” value is “no T-cell clones were isolated”.

Values taken from patent publication US20030134335A1, “Method for reducing the immunogenicity of heterologous proteins by elimination of t-cell epitopes” (priority 1999, published 2003).
